Measurements as given in paper PMC5587909, “Inhibition of the ATP Synthase Eliminates the Intrinsic Resistance of Staphylococcus aureus towards Polymyxins” (mBio, 2017).
Values after ≈ are worked out from the molar mass of the structure shown. Bridge positions count the residues as written; N and C are the ends. Square brackets hold non-standard residues; d marks the D form. Peptide text beside a SMILES is read from it. * marks the point of attachment. X1 = CC[C@H](C)CCCCC(=O)*; Dab = NCC[C@H](N)C(=O)O

How the values were obtained:
Type in all cases: cell-based, Staphylococcus aureus
[1] = tested on: S. aureus JE2 atpB transposon mutant (SAUSA300_2064); details: Etest on TSA
Source text: (§1) Staphylococcus aureus is intrinsically resistant to the clinically approved cationic antimicrobial peptides polymyxin B (PMB) and colistin ([1], [16]). […] The MIC for PMB was subsequently determined using Etests for the identified mutants. Nineteen mutants were confirmed to be at least 2-fold more susceptible than the WT (Table 1). As expected, we identified transposon insertions in graS, graR, vraF, and vraG, corroborating previous work on these determinants in S. aureus in relation to increased PMB susceptibility ([12]).
(§2) The strains used in this study include S. aureus strain JE2 (plasmid-cured derivative of USA300 LAC) and all derivative strains within the Nebraska Transposon Mutant Library (NTML), consisting of 1,920 unique transposon mutants with inactivation of nonessential genes ([15]). The bursa aurealis transposon used to create the collection contains the resistance cassette ermB, which confers resistance to erythromycin ([15]). Additionally we used S. aureus SA113 and two derivatives, SA113 ΔdltA ([9]) and SA113 ΔmprF ([10]). All bacterial strains were cultured at 37°C in tryptic soy broth (TSB) or on tryptic soy agar (TSA), with antimicrobial agents added as indicated. Two methods have been employed to determine MICs to various antimicrobial agents. (i) A 2-fold broth microdilution assay in TSB (100 µl) with an initial inoculum of approximately 5 × 10^5 cells/ml was employed to determine the MICs of polymyxin B sulfate (Sigma), gallidermin (Santa Cruz Biotechnology), nisin (Sigma), bacitracin (Sigma), and LL-37 (Isca Biochemicals). (ii) An Etest (BioMérieux) performed on TSA plates was employed to determine MICs for polymyxin B, colistin, ciprofloxacin, oxacillin, linezolid, gentamicin, vancomycin, and daptomycin. The MIC was determined upon incubation at 37°C for 22 h. When indicated, the Etest (BioMérieux) was performed on Mueller-Hinton agar plates (cation adjusted for calcium and magnesium).

[2] = tested on: S. aureus JE2 atpG transposon mutant (SAUSA300_2059); details: Etest on TSA
Source text: as §1, §2

[3] = tested on: S. aureus JE2 cbiO transposon mutant (SAUSA300_2176); details: Etest on TSA, 37°C, 22 h
Source text: as §1, §2

[4] = tested on: S. aureus JE2 transposon mutant SAUSA300_0918 (diacylglycerol glucosyltransferase); details: Etest on TSA, 37°C, 22 h
Source text: as §1, §2

[5] = tested on: S. aureus JE2 transposon mutant SAUSA300_1785 (putative ABC transporter protein EcsB); details: Etest on TSA, 37°C, 22 h
Source text: as §1, §2

[6] = tested on: S. aureus JE2 transposon mutant SAUSA300_1802 (hypothetical protein); details: Etest on TSA, 37°C, 22 h
Source text: as §1, §2

[7] = tested on: S. aureus JE2 vraS transposon mutant (SAUSA300_1866); details: Etest on TSA, 37°C, 22 h
Source text: as §1, §2

[8] = tested on: S. aureus JE2 yajC transposon mutant (SAUSA300_1594); details: Etest on TSA, 37°C, 22 h
Source text: as §1, §2

[9] = tested on: S. aureus SA113 (wild type); details: MIC method not given, 37°C, 22 h
Source text: (§3) Lysinylation of phosphatidylglycerols therefore seems to mediate selective protection against certain cationic antimicrobial peptides.
as §2, with “The MIC was determined upon incubation at 37°C for 22 h. When indicated, the Etest (BioMérieux) was performed on Mueller-Hinton agar plates (cation adjusted for calcium and magnesium).” left out

[10] = tested on: S. aureus SA113 ΔmprF mutant; details: MIC method not given, 37°C, 22 h
Source text: as §3
as §2, with “The MIC was determined upon incubation at 37°C for 22 h. When indicated, the Etest (BioMérieux) was performed on Mueller-Hinton agar plates (cation adjusted for calcium and magnesium).” left out

[11] = tested on: S. aureus SA113 ΔdltA mutant; details: MIC method not given, 37°C, 22 h
Source text: as §2

[12] = tested on: S. aureus JE2 (WT); assay: Kill curve experiment, polymyxin B with or without oligomycin A; details: WT JE2 in TSB; PMB alone at 0.25× MIC of WT; 4 h
Source text: The ATP synthase is a well-described protein complex, and multiple inhibitors have been identified that interfere with its function—e.g., the macrolide oligomycin A ([32]). […] The combinatory efficacy of PMB and oligomycin A is similar to the observed killing efficacy of PMB against the atpA mutant.
FIG 4 Improved killing efficacy of PMB upon inhibition of the ATP synthase. […] The data represent the average from three measurements, with error bars showing 95% confidence intervals.
From overnight cultures of S. aureus JE2 and the derivative atpA mutant, 100 μl was diluted into 900 μl fresh TSB medium in a Falcon tube and grown for 1 h for the cells to reach the early exponential phase. After 1 h, the cultures were diluted into 10 ml fresh TSB medium in 100-ml Erlenmeyer flasks, reaching an initial cell count of approximately 10^6 cells/ml. Oligomycin A (Sigma) was added to flasks as indicated at a concentration of 8 μg/ml. […] CFU were determined on TSA plates before addition of oligomycin A (time zero [T0]), before addition of polymyxin B (time 30 min [T30]), and every hour for the following 4 h.

## CC[C@H](C)CCCCC(=O)N[C@@H](CCN)C(=O)N[C@H](C(=O)N[C@@H](CCN)C(=O)N[C@H]1CCNC(=O)[C@H]([C@@H](C)O)NC(=O)[C@H](CCN)NC(=O)[C@H](CCN)NC(=O)[C@H](CC(C)C)NC(=O)[C@@H](Cc2ccccc2)NC(=O)[C@H](CCN)NC1=O)[C@@H](C)O [Polymyxin B, polymyxin B] (X1-[Dab]T[Dab][Dab][Dab][dF]L[Dab][Dab]T; lactam 4-C (inferred); N-terminus assumed)
[1]; 37°C, 22 h, atpB mutant
  MIC: 16 µg/mL (≈ 13.3 µM)
[1]; atpB mutant vs WT JE2
  fold reduction in MIC relative to WT: 8 fold
[2]; 37°C, 22 h, atpG mutant
  MIC: 16 µg/mL (≈ 13.3 µM)
[2]; atpG mutant vs WT JE2
  fold reduction in MIC relative to WT: 8 fold
[3]
  MIC: 48 µg/mL (≈ 39.9 µM)
[4]
  MIC: 64 µg/mL (≈ 53.2 µM)
[5]
  MIC: 48 µg/mL (≈ 39.9 µM)
[6]
  MIC: 64 µg/mL (≈ 53.2 µM)
[7]
  MIC: 64 µg/mL (≈ 53.2 µM)
[8]
  MIC: 64 µg/mL (≈ 53.2 µM)
[9]
  MIC: 512 µg/mL (≈ 425 µM)
[10]
  MIC: 384 µg/mL (≈ 319 µM)
[11]
  MIC: 48 µg/mL (≈ 39.9 µM)
[12]
  killing efficacy (CFU over time): continued growth
